This is an account of results in US12433892B2, “Compositions and methods of treatment for neurological disorders comprising depression” (Gliapharm SA, priority 2018, dated 2025).

Structures are written as SMILES. Counter-ions that a name gives are not always drawn.

Data set [1] deals with astrocytes. Briefly: Intracellular glycogen quantification. The class given is cell-based, mouse. To be noted: Prestwick hits; 10 uM, 3 h. As for the experimental part: For glycogen dosage, a protein dosage was first performed in order to assess whether harvested astrocytes from primary cell cultures yielded enough and equivalent amounts of proteins comparing each replicate, and to ensure that the obtained differences in glycogen quantities were due to drug action and not to inner protein quantities.
Astrocytes used for these dosages were previously grown in 6-well plates for 17 days and stimulated with Vehicle (DMSO) or drug of interest (1 μM to 100 μM) for 180 min, at 37° C. 5% CO2/95% air in D5030 complete medium. Medium was removed and replaced with 600 μl of 30 mM Tris HCl, and stored at −20° C.
Proteins were dosed using the micro BCA Protein Assay kit (Thermo Scientific), as described in the manufacturer's instructions. Briefly, thawed cells were sonicated and 5 μl aliquots were placed in a transparent 96-well plate, to which we added 25 μl 30 mM Tris HCl, 70 μl H2O and 100 μl of a BCA mix (made as described in manufacturer's guidelines). After a 120 min-incubation at 37° C., absorbance was measured with Safire 2 spectrophotometer at a wavelength of 562 nm, and protein quantities were determined from a standard curve of Bovine Serum Albumin (BSA).
Glycogen was quantified using a 250 μl-aliquot of the same stimulated, thawed, and sonicated cells. After an incubation period of 30 min at 90° C. and 400 rpm, 28 μl of an acetic acid/sodium acetate (both from Sigma) 0.1M pH 4.6 buffer was added to each aliquot, which was then separated in two. Each split aliquot received whether 5 μl of amyloglucosidase (Roche) or 5 μl H2O, and all cell solutions were incubated for 120 min in a shaking 37° C.-waterbath. After a centrifugation at 16'000 G for 5 min, 20 μl of supernatant were placed 96-well plate, to which 150 μl of a mix containing 0.67 mM ATP (Roche), 0.67 mM NADP (Roche), 1.8% hexokinase/glucose-6-phosphate dehydrogenase (Roche) and 0.1M Tris Buffer-HCl/3.3 mM magnesium (Fluka)/pH 8.1 buffer was added. Fluorescence was measured with Safire 2 spectrophotometer (340 nm excitation/440 nm emission). Glycogen concentration was obtained by subtracting glucose value of samples with amyloglucosidase to samples without amyloglucosidase, and were expressed relative to the amount of proteins previously determined.
Levels of intracellular glycogen in astrocytes were measured at 3 h after stimulation with 20 hits from the Prestwick library (10 μM each), as shown in FIG. 2. n=6-10; Ctrl pos. is glutamate (0.5 mM). Statistical analysis consisted in ANOVA followed by Fisher LSD post-hoc test for pair-wise comparisons.
Statistical analysis consisted in ANOVA followed by Fisher LSD post-hoc test for pair-wise comparisons.

In data set [2] the test system is C57Bl/6 male and female mice. In words: In vivo chronic toxicity (28 days). To be noted: chronic administration 10 mg/kg; treatment interrupted. As for the experimental part:
During this period, clinical symptoms and weight were recorded.
Chronic toxicity was assessed.

The test system of data set [3] is C57Bl/6 male and female mice. In words: Anxiety in elevated plus maze (EPM) after chronic treatment. The class given is in vivo, mouse. Conditions: end of 28-day chronic treatment, 10 mg/kg. As for the experimental part: Total distance, frequency of entry and duration in the open arms were measured using Ethovision automatic scoring; n>10;
The test system of data set [4] is cerebral extracellular lactate. In words: In vivo pharmacodynamics: lactate biosensors in cortex. Also on record: species or system mouse. To be noted: 10 mg/kg per os. The procedure: Extracellular levels of lactate were monitored in vivo using lactate biosensors (Pinnacle Technology), according to the manufacturer's instructions. Cannulae were surgically implanted in mice cerebral cerebral motor cortex areas M1/M2 (coordinates: +1.94 mm (to bregma), lateral −1.4 mm (to mideline), ventral −1.0 mm (to dura)) 5-7 days before administration of the compounds. Drugs were administered per os as previously described, and cerebral levels of extracellular lactate were dynamically recorded for 6 hours. Mice were administered vehicle alone first, followed 3 hours later by vehicle or drug (10 or 100 mg/kg). Area Under the Curve (AUC) quantifying the fluctuations of extracellular lactate concentrations for each of the compound tested was calculated using Graphad Prism and the ratio of AUC after drug over Vehicle administration was calculated. Groups of 8 male mice were used for each condition.
To measure biological effect of lead molecules in vivo in the brain, lactate levels were quantified after administration of the drug by using lactate biosensors implanted in the cortex of freely moving mice.

For data set [5], the system named is primary astrocytes. In words: Intracellular glycogen quantification, Example 2. The class given is cell-based, mouse. To be noted: 10 μM, 3 h (GP-0157: 0.1, 1, 10 μM). As for the experimental part:
To assess for the effect of the compounds of the invention, those were tested in primary astrocytes, as described below. Secretion of lactate was measured directly in the extracellular medium, and indirectly through the acidification of extracellular medium using extracellular pH sensor SNARE-5F-(AND-6)-CAR (SNARF5). Glucose uptake was measured by quantification 2-deoxyglucose in the cell. Cell Cultures Primary cultures of cerebrocortical astrocytes were obtained from 1 to 2-day-old OF1 mouse pups (Charles River). Briefly, cortices were isolated and minced in small pieces under a dissecting microscope. The cells were incubated for 30 min at 37° C. in a solution containing 20 U/ml papain, 1 mM L-cysteine and 10 kU/ml DNase I. After dissociation, papain activity was stopped by the addition of fetal calf serum (FCS). Single-cell suspension was then obtained by mechanical dissociation, which consisted in cells trituration in a DMEM D7777 medium supplemented with 44 mm NaHCO3, 10 ml/L antibiotic/antimycotic solution and 10% FCS. The cells were seeded at an average density of ˜10'000 cells/cm2 on poly-D-lysine coated 96- or 12-well culture plates, depending on their use, and grown in DMEM D7777 medium supplemented with 44 mm NaHCO3, 10 ml/L antibiotic/antimycotic solution and 10% FCS at 37° C. in a humidified atmosphere containing 5% CO2/95% air. Culture medium was renewed twice a week. Cells were stimulated and harvested between DIV14 and DIV17, when confluence and cell growth were optimal. Extracellular Medium Acidification (SNARF5) Secretion of lactate was measured indirectly through the acidification of extracellular medium using extracellular pH sensor […] (SNARF5). After washing cells twice with stimulation medium (DMEM (D5030, Sigma), 1 mM NaHCO2, and 5 mM Glucose, pH 7.4) at 37° C., cells were stimulated with compounds at a final concentration ranging from 10 nM to 30 μM in 50 μl per well of stimulation medium supplemented with 10 μM of SNARF5 (Life Technologies Corporation). Each compound was tested in two different plates for duplicates. After 90 min stimulation, fluorescence was read at exc. (excitation) 480 nm/emm. (emission) 580 nm and at exc 480 nm/emm. 630 nm. The ratio of fluorescence between 630 nm and 580 emission values, which is proportional to extracellular pH, was calculated. In each plate, 8 wells were used for negative controls (DMSO 0.1%) and 8 wells were used for positive controls (CCCP 2 μM in DMSO). The extracellular medium acidification in primary mouse astrocytes treated with GP-A1 was quantified (FIG. 13). Extracellular medium acidification was measured over a period of 1.5 h and 3 h. […] Extracellular Lactate Quantification Secretion of L-lactate was measured in the extracellular medium of 96-well plated astrocytes after 90 min stimulation (at 37° C., in 5% CO2/95% air conditions) with Vehicle (DMSO), the compounds of the invention (100 nM to 100 μM) or positive control. […] Stimulation medium was composed of D5030 medium complemented with 5 mM D-glucose and 44 mM sodium bicarbonate, pH 7.2. To quantify lactate concentrations in the extracellular medium, 200 μl of a 0.2M Glycine-semicarbazide buffer (pH 10) containing 3 mM NAD and 14 U/ml LDH was added to each well of a 96-well plate containing 30 μl aliquots of extracellular medium. Samples were incubated at 37° C. for 1 h. Fluorescence intensity (340 nm excitation/450 nm emission), which represents the amount of NADH produced, was measured, and lactate concentration values were determined relative to a standard curve of L-lactate concentrations. The release of lactate from primary mouse astrocytes treated with GP-A1 was quantified (FIG. 5A and FIG. 14). Accumulation of lactate in the extracellular medium was measured over a period of 1.5 h. […] Intracellular Glycogen Quantification Astrocytes grown on 12-well plates were used for intracellular glycogen quantifications. […]

Data set [6] concerns astrocytes. In words: Intracellular glycogen quantification. It counts as cell-based, mouse. To be noted: CDC54K hits; 10 uM, 3 h.
Data set [7] has as its system C57Bl/6 female mice. To be noted: 100 mg/kg single per os, 14 days monitoring. The procedure:
The compound was administered at 10 mg/kg.
In vivo acute toxicity was assessed with a starting maximal concentration of 100 mg/kg. […] Groups of 6-8 female mice were monitored for 14 days after single oral administration of the drug, weighted every day, and a macroscopic histological examination was performed at the end of the experiment. Clinical evaluation included the observation of mice' ability to feed, hydrate, notification of any visible pain, unusual grooming or respiration, blood loss, evidence of microbial infection, and/or significant loss of weight.
For this period, mice were weighted and clinically monitored (feeding, hydration, pain, grooming, respiration, blood loss, microbial infection). At the end of the 14-day evaluation, mice were sacrificed and high level organ analysis was performed. Drugs were always administered per os (gavage) in solution composed of Methocel 4KM 0.4%, Tween 0.25%.

Data set [8] concerns cerebral glycogen. Briefly: In vivo pharmacodynamics: glycogen levels in prefrontal cortex. Conditions: 10 mg/kg. Also noted: species or system mouse. The source says:
To measure intracerebral levels of glycogen, mice were euthanized at different time points after drug administration, using a microwave beam (1 sec, 6 kW) focused directly on mice brains. This method of fixation results in the rapid inhibition of enzymatic reactions, thereby preserving intact metabolic state in the brain of euthanized animals. Glycogen concentration was quantified using standard biochemical procedure. Groups of 8 male mice were used for each condition.
Glycogen levels were measured in microwave-fixed PFC (prefrontal cortex, 6 kW, 1 sec), which ensures enzymatic inhibition and stops glycogen degradation. Samples were then flash frozen before dosage.
First, glycogen levels were analyzed at 1 h, 3 h and 6 h after drug administration. […] This time point was subsequently used for dose-response experiments. Glycogen levels were quantified at 3H after administration with GP-01 to GP-07 at 1, 10 or 100 mg/kg.

As for `C#C[C@]1(O)CC[C@H]2[C@@H]3[C@H](C)CC4=C(CCC(=O)C4)[C@H]3CC[C@@]21C` [Tibolone], in data set [1], the “Glycogen (statistical significance of glycogen degradation)” value is “*** (***p<0.001)”. Moreover, the weight loss in data set [2] is more than 20%. Also, the “anxiety in EPM” value in data set [3] is listed as “increased anxiety”. For the same compound, in data set [4], the “cerebral lactate (AUC ratio vs vehicle)” value is recorded as “Significant increase”.

Consider `O=S(=O)(Nc1cc(F)cc(F)c1)c1ccc2ccccc2c1` [T5884038], for which the “mobilization of intracellular glycogen” value in data set [5] was “significantly enhance the mobilization of intracellular glycogen”. For the same compound, in data set [6], the “Glycogen (statistical significance of glycogen degradation)” value was “**** (****p<0.0001)”.

Take `[H]/N=C(\N/C(=N/[H])Nc1ccc(Cl)cc1)NC(C)C` [Proguanil hydrochloride]: the “Glycogen (statistical significance of glycogen degradation)” value in data set [1] was “*** (***p<0.001)”. Moreover, in data set [7], the “acute toxicity (toxic or not)” value is reported as “toxic”. In addition, in data set [8], the PD effect entry is reported as “did not show good PD effect”.

Consider `COc1ccc(Nc2nc(N3CCOCC3)c3ccccc3n2)cc1.Cl` [T0508-5190], for which, in data set [5], the “mobilization of intracellular glycogen” value is reported as “significantly enhance the mobilization of intracellular glycogen”. Also, the “Glycogen (statistical significance of glycogen degradation)” value in data set [6] is “** (**p<0.01)”.
